Results reported in ChEMBL document CHEMBL1201862, “PubChem BioAssay data set” (2004).
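1) Cells in 96-well plates. 2) Compound, 48 h, 5 concentrations. 3) Linear interpolation between surrounding doses. 4) Unreached endpoint = highest concentration. Abbreviation: GI50, concentration required for 50% inhibition of growth.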 Active and inactive are the calls of the source. Cut-off read from the data, not from the text of the source: active = GI50 up to about 1.1 µM and inactive = higher.

Columns and labels:
Test in all cases: NCI anticancer screen, dose series, 48 h
SNB-75 = system: SNB-75
U-251 = system: U-251
UO-31 = system: UO-31
M14 = system: M14
OVCAR-4 = system: OVCAR-4
A549 = system: A549
NCI-H226 = system: NCI-H226
HCC 2998 = system: HCC 2998
CAKI-1 = system: CAKI-1
Hs-578T = system: Hs-578T
RPMI-8226 = system: RPMI-8226
IGROV-1 = system: IGROV-1
HOP-92 = system: HOP-92
NCI/ADR-RES = system: NCI/ADR-RES
786-0 = system: 786-0
SK-MEL-5 = system: SK-MEL-5
HCT-116 = system: HCT-116
T47D = system: T47D
TK-10 = system: TK-10
RXF 393 = system: RXF 393

Measured: GI50

Cc1nc2c(N3CCCC3)nc(N3CCNCC3)nc2nc1NCc1ccccc1
active: SNB-75 0.578 µM
inactive: U-251 3.2 µM | UO-31 2.41 µM | M14 1.94 µM | OVCAR-4 7.73 µM | A549 3.88 µM | NCI-H226 13.1 µM | HCC 2998 1.53 µM | CAKI-1 3.01 µM | Hs-578T 6.17 µM | RPMI-8226 2.11 µM | IGROV-1 3.95 µM | HOP-92 2.33 µM | NCI/ADR-RES 13 µM | 786-0 4.9 µM | SK-MEL-5 1.65 µM | HCT-116 1.62 µM | T47D 1.73 µM | TK-10 4.88 µM

COc1ccc(/N=C2\C(=O)C3=C(OC(C)(C)CC3)c3ccccc32)cc1
active: SNB-75 1.11 µM | U-251 0.841 µM | UO-31 0.755 µM | M14 0.769 µM | OVCAR-4 0.773 µM | A549 0.946 µM | CAKI-1 0.991 µM | NCI/ADR-RES 0.802 µM | RXF 393 1.09 µM | 786-0 0.971 µM | SK-MEL-5 0.838 µM | HCT-116 0.499 µM | T47D 0.839 µM
inactive: NCI-H226 6.37 µM | HCC 2998 1.51 µM | Hs-578T 1.63 µM | IGROV-1 1.36 µM | HOP-92 2.66 µM | TK-10 2.33 µM

Cc1ccc(C)n2c1nc1cc3ccccc3cc12
inactive: SNB-75 17 µM | U-251 30.4 µM | UO-31 14.9 µM | M14 42.6 µM | A549 28.6 µM | NCI-H226 36 µM | Hs-578T 60.3 µM | RPMI-8226 42.5 µM | IGROV-1 23.1 µM | HOP-92 8.75 µM | NCI/ADR-RES 49.4 µM | RXF 393 12.3 µM | 786-0 36.2 µM | SK-MEL-5 17.1 µM | HCT-116 15.3 µM | T47D 11.1 µM | TK-10 15.5 µM

COc1ccc(/C(=N/N=c2[nH]c3ccccc3[nH]2)C(=O)O)cc1
inactive: SNB-75 > 100 µM | U-251 > 100 µM | UO-31 > 100 µM | M14 > 100 µM | OVCAR-4 > 100 µM | A549 > 100 µM | NCI-H226 > 100 µM | HCC 2998 > 100 µM | CAKI-1 > 100 µM | Hs-578T > 100 µM | RPMI-8226 > 100 µM | IGROV-1 > 100 µM | HOP-92 > 100 µM | NCI/ADR-RES > 100 µM | 786-0 > 100 µM | SK-MEL-5 > 100 µM | HCT-116 > 100 µM | T47D > 100 µM | TK-10 > 100 µM

Cc1ccc(S(=O)(=O)NCCCCC(N)C(=O)O)cc1 (centres undefined)
inactive: SNB-75 > 100 µM | U-251 > 100 µM | UO-31 > 100 µM | M14 > 100 µM | OVCAR-4 > 100 µM | A549 > 100 µM | NCI-H226 > 100 µM | CAKI-1 > 100 µM | Hs-578T > 100 µM | RPMI-8226 > 100 µM | IGROV-1 > 100 µM | HOP-92 > 100 µM | NCI/ADR-RES > 100 µM | RXF 393 > 100 µM | 786-0 > 100 µM | SK-MEL-5 > 100 µM | HCT-116 > 100 µM | T47D > 100 µM

O=C(O)C1CCCN1Cc1c[nH]c2ccccc12 (centres undefined)
inactive: SNB-75 > 100 µM | U-251 > 100 µM | UO-31 > 100 µM | M14 > 100 µM | OVCAR-4 > 100 µM | A549 > 100 µM | NCI-H226 > 100 µM | CAKI-1 > 100 µM | Hs-578T > 100 µM | RPMI-8226 > 100 µM | IGROV-1 > 100 µM | HOP-92 > 100 µM | NCI/ADR-RES > 100 µM | RXF 393 > 100 µM | 786-0 > 100 µM | SK-MEL-5 > 100 µM | HCT-116 > 100 µM | T47D > 100 µM | TK-10 > 100 µM

CCNC(=S)NNC(=O)C12CC3CC(CC(C3)C1)C2
inactive: SNB-75 64.1 µM | U-251 > 100 µM | UO-31 > 100 µM | M14 > 100 µM | OVCAR-4 > 100 µM | A549 > 100 µM | NCI-H226 > 100 µM | HCC 2998 > 100 µM | CAKI-1 > 100 µM | Hs-578T > 100 µM | RPMI-8226 > 100 µM | IGROV-1 > 100 µM | NCI/ADR-RES > 100 µM | RXF 393 > 100 µM | 786-0 > 100 µM | SK-MEL-5 > 100 µM | HCT-116 > 100 µM | T47D > 100 µM | TK-10 > 100 µM

O=C(O)CCSCc1ccccc1
inactive: SNB-75 > 100 µM | U-251 > 100 µM | UO-31 > 100 µM | M14 > 100 µM | OVCAR-4 > 100 µM | A549 > 100 µM | NCI-H226 > 100 µM | HCC 2998 > 100 µM | CAKI-1 > 100 µM | Hs-578T > 100 µM | RPMI-8226 > 100 µM | IGROV-1 > 100 µM | NCI/ADR-RES > 100 µM | RXF 393 > 100 µM | 786-0 > 100 µM | SK-MEL-5 > 100 µM | HCT-116 > 100 µM | T47D > 100 µM | TK-10 > 100 µM
